Columns and labels:
[1] = Time to complete dissolution during preparation of high concentration solutions; type: physicochemical
Protocol: Solubilization of Baclofen by Heat and Sonication. Appropriate amounts of baclofen were weighed and added to appropriate volumes of normal saline in order to produce mixtures containing 4, 5, 6, 8 or 10 mg/mL baclofen. All samples had undissolved baclofen powder present immediately after mixing. Samples having concentrations of 4, 5 or 6 mg/mL of baclofen were heated to 70° C. Samples having concentrations of 8 and 10 mg/mL of baclofen were heated to 95° C. Intense agitation was applied to all of the samples by sonicating the samples during the heating step. Heating and sonication were continued until all of the powder dissolved, and a clear solution with no residual particulate matter resulted. For the 4, 5, and 6 mg/mL samples, this occurred in about 20 to 30 minutes. […] Again, the solutions were clear with no residual particulate matter.
Solubilization of Baclofen by Heat and High-Speed Stirring. Appropriate amounts of baclofen were weighed and added to appropriate volumes of normal saline in order to produce mixtures containing 4, 5, 6, 8 or 10 mg/mL baclofen. All samples had undissolved baclofen powder present immediately after mixing. Samples having concentrations of 4, 5 or 6 mg/mL of baclofen were heated to 70° C. Samples having concentrations of 8 and 10 mg/mL of baclofen were heated to 95° C. Intense agitation was applied to all of the samples by high-speed stirring. A high-speed stir bar was placed in each of the containers for each of the baclofen concentrations was stirred using a Thermolyne stirrer at a speed of about 600 rpm while the solutions were heated. This was designed to simulate the use of a high-speed high shear mixer in a larger industrial setting. Again the heating at 70° C. for the 4, 5, and 6 mg/mL concentrations and to 95° C. for the 8 and 10 mg/mL concentrations and high-speed stirring were continued until all of the powder had dissolved and a clear solution with no residual particulate matter resulted. This occurred within about 20 minutes with all samples.
Acidification with Back Titration. Baclofen concentrations of 4, 5, 6, 8, and 10 mg/mL were prepared by dissolving appropriate amounts of baclofen powder in 0.1 N hydrochloric acid. […] The solutions were then back titrated with 0.1 N sodium hydroxide to reach a pH about 5.0 to 5.1, which is within the current product pH range for commercial baclofen solutions, and brought to volume with 0.9% sodium chloride. After complete dissolution had occurred, the solutions were filtered through 0.22-micron sterilizing filters into sterile empty vials. The vials were stored at room temperature, under refrigeration, and at 37° C. to simulate “in use” conditions in an implanted pump.
Alkalinization with Back Titration. Baclofen concentrations of 4, 5, 6, 8, and 10 mg/mL were prepared by dissolving appropriate amounts of baclofen powder in 0.1 N sodium hydroxide. […] The solutions were then back titrated with 0.1 N hydrochloric acid to reach a pH about 6.9 to 7.0, which is within the current product range, and brought to volume with 0.9% sodium chloride. After complete dissolution had occurred, the solutions were filtered through 0.22-micron sterilizing filters into sterile empty vials. The vials were stored at room temperature, under refrigeration, and at 37° C. to simulate “in use” conditions in an implanted pump.

[2] = Physical stability evaluation (visual inspection, Tyndall beam, turbidity, particle counting) of stored baclofen solutions; type: physicochemical; settings: for time remained clear and free of unacceptable microparticulates: room temperature or 37° C.
Protocol: Methods of Sample Preparation. All manipulations are conducted in a Class 100 environment in a biological safety cabinet. Each test solution is prepared as a pooled sample and then subdivided by (1) drawing 20 mL of the solution into 30-mL Becton-Dickinson syringes having Braun Luer lock “Red Cap” syringe tip seals and (2) sealing the Luer tip with a Red Cap Luer tip seal and (3) filling 20 mL of the test solution into 30-mL sterile empty glass vials. Separate sample syringes and sample vials are prepared for each drug concentration at each storage temperature. Separate syringes and vials are prepared for analysis of the drug content. Further syringes and vials are used to evaluate the physical stability of the solutions.
Methods of Sampling and Analysis. Each pooled solution is analyzed and evaluated immediately after preparation. This serves as the initial time point evaluation for the test solution. The solution is then packaged into the syringes and vials as noted under Sample Preparation.
The test solutions in vials and syringes are thoroughly mixed prior to sampling. A 1-mL sample of each test solution from three test syringes and three test vials is collected and chemically analyzed. The sample aliquots are removed from each container after 1, 3, 7, 14, 21, 30 and 60 days of storage at 4° C., 23° C., and 37° C. Triplicate HPLC determinations are performed at each time point if needed to determine the maximum stability of baclofen. The contents of the remaining containers are visually inspected at each assay time point and 6-mL samples are collected and fully evaluated for physical stability as indicated under Physical Stability Evaluation above after 1, 3, 7, 14, 21, 30 and 60 days.
After complete dissolution of the samples had occurred, the solutions were allowed to cool to room temperature and several separate aliquots of each sample were filtered through 0.22-micron sterilizing filters into sterile empty vials. Vials containing samples of each solution were stored under one of three test conditions: vials were stored at room temperature or under refrigeration (to simulate normal storage conditions), or at 37° C. (to simulate “in use” conditions in an implanted pump).
Physical Stability Evaluation. The samples are also evaluated for changes in turbidity and particulate formation. In addition to visual inspection in normal diffuse fluorescent room light and using a high-intensity monodirectional light source (Tyndall beam) against a dark background, turbidity is measured using a Hach Company model 2100AN color-correcting turbidimeter, and particle sizing/counting is performed using a light-obscuration particle sizer and counter (HIAC-Royco Model 9703 particle sizer/counter).

[3] = cited from earlier work
[4] = Physical stability evaluation (visual inspection, Tyndall beam, turbidity, particle counting) of stored baclofen solutions; type: physicochemical; settings: for Physical Stability (yes/no) / visual inspection at approximately 16 months: heat and sonication; for physical stability at twelve months: 12 months

time until all powder dissolved (clear solution) ([1]; 4, 5, 6 mg/mL at 70° C. and 8, 10 mg/mL at 95° C., normal saline, high-speed stirring about 600 rpm (Example 2)): ≤ 20 min | time until powder dissolved (clear solution) ([1]; 4, 5, 6, 8, and 10 mg/mL in 0.1 N hydrochloric acid (Example 3)): within a few minutes | time until powder dissolved (clear solution) ([1]; 4, 5, 6, 8, and 10 mg/mL in 0.1 N sodium hydroxide (Example 4)): within a few minutes | time until all powder dissolved (clear solution) ([1]; 4, 5, and 6 mg/mL in normal saline, 70° C., sonication (Example 1)): 20 to 30 min | time until all powder dissolved (clear solution) ([1]; 8 and 10 mg/mL in normal saline, 95° C., sonication (Example 1)): about 20 minutes | time stayed in solution, clear and free of visible particulates and unacceptable microparticulates ([2]; 4 mg/mL, Examples 1 and 2, 37° C. (maximum duration tested)): at least one | time remained clear and free of unacceptable microparticulates ([2]; 4 mg/mL, prepared by pH adjustment (Examples 3 and 4)): at least 60 days | time remained clear and free of unacceptable microparticulates ([2]; 5 mg/mL, all four methods (Examples 1-4)): at least 60 days | time after which a precipitate developed ([2]; 6 mg/mL, refrigeration): 7 days | time remained in solution clear and free of unacceptable microparticulates ([2]; 8 mg/mL, acidification and back titration to pH 5 (Example 3), room temperature): at least 30 days | time remains in solution clear and free of unacceptable microparticulates ([2]; 8 mg/mL, alkalinization and back titration (Example 4), room temperature): at least 30 days | Physical Stability (yes/no) ([4]; 3 mg/ml, room temperature, test period 24 months): yes | Physical Stability (yes/no) ([4]; 3.5 mg/ml, room temperature, test period 24 months): yes | time remained in solution ([4]; 4 mg/mL, Examples 1 and 2, refrigerated at 4° C. (maximum duration tested)): at least 60 days | time remained in solution, clear and free of visible particulates and microparticulate precipitation ([4]; 4 mg/mL, Examples 1 and 2, room temperature of 23° C.): at least one | time stayed in solution, clear and free of visible particulates and unacceptable microparticulates ([4]; 4 mg/mL, heat and sonication (Example 1) or heat and high speed stirring (Example 2), room temperature): over 12 months | Physical Stability (yes/no) ([4]; 4 mg/ml, room temperature, test period 12 months): yes | Physical Stability (yes/no) ([4]; 4 mg/ml, room temperature, test period 24 months): yes | time after which a precipitate developed ([4]; 5 mg/mL, refrigeration): 14 days | Physical Stability (yes/no) ([4]; 5 mg/ml, room temperature, test period 12 months): yes | time remained clear and free of unacceptable microparticulates ([4]; 6 mg/mL, all four methods (Examples 1-4), room temperature or 37° C.): at least 60 days | visual inspection at approximately 16 months ([4]; 6.0 mg/mL, room temperature): no change in its condition | Physical Stability (yes/no) ([4]; 6 mg/ml, room temperature, test period 12 months, no visible particulates to the unaided eye, trace microparticulates in a few vials): yes^b | time remained in solution ([4]; 8.0 mg/mL, heat and sonication (Example 1), room temperature): at least 30 days | time remained clear and free of unacceptable microparticulates before trace particulate precipitation ([4]; 8 mg/mL, heating and agitation (Examples 1 and 2), room temperature or 37° C.): 14 days | physical stability at 24 months ([4]; 3.0, 3.5 and 4.0 mg/mL, heat and sonication (Example 1), room temperature, 24 months, four methods of Example 11): physically stable by all four methods | visual inspection at approximately 16 months ([4]; 4.0 and 5.0 mg/mL, room temperature): no change in the solutions
Structure (SMILES): NCC(CC(=O)O)c1ccc(Cl)cc1 (centres unmarked) [Baclofen, 4-amino-3-(p-chlorophenyl) butyric acid]
concentration obtained by dissolving in acid ([3]; aqueous 0.1N HCl (Ahuja 1985)): greater than 20 mg/ml | concentration obtained by dissolving in base ([3]; aqueous 0.1N NaOH (Ahuja 1985)): greater than 20 mg/ml | solubility in chloroform ([3]; chloroform): insoluble | solubility in methanol ([3]; methanol): very slightly soluble | upper limit on room temperature aqueous solubility ([3]; room temperature, equilibrium reached over weeks or months (Ahuja, 1985)): 4300 µg/mL | solubility in water ([3]; water): slightly soluble | physical stability at twelve months ([4]; 6.0 mg/mL, heat and sonication (Example 1), room temperature): no visible particulates to the unaided eye, but did contain trace amounts of solid material | physical stability at twelve months ([4]; 4.0 and 5.0 mg/mL, heat and sonication (Example 1), room temperature): remained clear and no particulates were detected

Reference: patent US8357379B2, “High concentration baclofen preparations” (Board of Regents, The University of Texas System, priority 2004, dated 2013)
